According to PubChem BioAssay (NCI):
“And” between values parts separate entries of the source, which are not always exact repeats. Equal entries are not always repeated.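 Five compound concentrations were applied to cells in 96-well plates for 48 hours; endpoints were derived by simple linear interpolation of the resulting dose-response curve. GI50: concentration for 50% inhibition of growth. The concentration for full growth arrest is given as TGI.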

How the values were obtained:
Assay in all cases: NCI anticancer screen, dose series, 48 h
UACC-257 melanoma = system: UACC-257 melanoma
SK-OV-3 ovarian = system: SK-OV-3 ovarian
CCRF-CEM leukemia = system: CCRF-CEM leukemia
MDA-MB-435 = system: MDA-MB-435
HT29 colon = system: HT29 colon
T-47D breast = system: T-47D breast
SNB-75 CNS = system: SNB-75 CNS
M14 melanoma = system: M14 melanoma
KM12 colon = system: KM12 colon

SMILES | GI50 (UACC-257 melanoma) | TGI (UACC-257 melanoma) | GI50 (SK-OV-3 ovarian) | TGI (SK-OV-3 ovarian) | GI50 (CCRF-CEM leukemia) | TGI (CCRF-CEM leukemia) | GI50 (MDA-MB-435) | TGI (MDA-MB-435) | GI50 (HT29 colon) | TGI (HT29 colon) | GI50 (T-47D breast) | TGI (T-47D breast) | GI50 (SNB-75 CNS) | TGI (SNB-75 CNS) | GI50 (M14 melanoma) | TGI (M14 melanoma) | GI50 (KM12 colon) | TGI (KM12 colon)
COc1ccc(C2CC(c3cc(OC)c(OC)c(OC)c3)=NO2)cc1OCCCCOc1cc2c(cc1OC)C(=O)N1CCC[C@H]1C=N2 (some centres not stated) | 2.33 µM | 4.96 µM | 3.37 µM | 9.46 µM | 1.41 µM | 4.27 µM | 3.54 µM | > 100 µM | 2.75 µM | 8.38 µM | 1.31 µM | 4.11 µM | 1.71 µM | 3.29 µM | 1.73 µM | 3.45 µM | 1.74 µM | 3.32 µM
CCN1CCN(Cc2ccc(-c3cc4c(N[C@H](C)c5ccccc5)ncnc4[nH]3)cc2)CC1 | 1.76 µM and 1.83 µM | 3.38 µM and 3.41 µM | 0.299 µM | 11.1 µM | 2.41 µM and 3.23 µM | 6.43 µM and > 10 µM | 1.95 µM and 2.74 µM | 4.63 µM and 8.4 µM | 1.99 µM and 2.41 µM | 8.77 µM and > 10 µM | 1.36 µM and 0.765 µM | 19.2 µM and > 10 µM | 1.48 µM and 1.88 µM | 9.56 µM and 8.12 µM | 1.84 µM and 1.92 µM | 3.77 µM and 4.4 µM | 3.84 µM and 3.5 µM | 14.4 µM and > 10 µM
COc1cccc2c1C(=O)C=CC2=O | – | 29 µM | – | 36.2 µM | – | 1.65 µM | – | 26.2 µM | – | 26.9 µM | – | 5.04 µM | – | 29.9 µM | – | 20.7 µM | – | 25 µM
F | 2160 µM | 4940 µM | 3680 µM | > 6870 µM | 4540 µM | > 6870 µM | 2080 µM | 5500 µM | 2110 µM | 6180 µM | 2100 µM | 5670 µM | 2160 µM | 5570 µM | 2260 µM | 5900 µM | 2610 µM | > 6870 µM
O=[N+]([O-])c1ccc(S(=O)(=O)Cc2ccccc2)c([N+](=O)[O-])c1 | – | 3.05 µM | – | 13.2 µM | – | 0.498 µM | – | 3.34 µM | – | 5.55 µM | – | 4.48 µM | – | 21.2 µM | – | 3.37 µM | – | 23.7 µM
COc1cc(NS(C)(=O)=O)ccc1Nc1c2ccc([N+](=O)[O-])cc2nc2c(C)cccc12 | 1.29 µM | 14.7 µM | 0.891 µM | 11.5 µM | 0.158 µM | 3.4 µM | 1.67 µM | 15 µM | 1.41 µM | 7.1 µM | 0.117 µM | 7.68 µM | 0.311 µM | 7.48 µM | 0.228 µM | 11.2 µM | 0.814 µM | 8.15 µM
CC[C@]1(O)CC(OC2CC(N(C)C)C(O)C(C)O2)c2c(cc3c(c2O)C(=O)c2c(O)cccc2C3=O)[C@@H]1C(=O)OC (some centres not stated) | – | 1.88 µM | – | 2.18 µM | – | 3.39 µM | – | 1.44 µM | – | 5.09 µM | – | 5.54 µM | – | 1.42 µM | – | 2.07 µM | – | 3.2 µM
C[C@@H]1COCCN1c1cc(C2([S@](C)(=N)=O)CC2)nc(-c2ccnc3[nH]ccc23)n1 | 14 µM and > 10 µM | 74 µM and > 10 µM | 2.7 µM and 4.51 µM | 27.9 µM and > 10 µM | 1.21 µM and 1.11 µM | > 29 µM | 3.74 µM and 4.29 µM | 35.7 µM and > 10 µM | 4.27 µM and 4.99 µM | > 100 µM | 3.96 µM and 7.78 µM | 35.8 µM and > 10 µM | 2.29 µM and 2.16 µM | 20.3 µM and > 10 µM | 1.69 µM and 2.38 µM | 9.96 µM and > 10 µM | 4.21 µM and 3.95 µM | > 100 µM
